Where two headings read alike, the source gives them in different places.
Key:
MDCK monolayers [1] = experiment: permeability (flux) across MDCK monolayers; conditions: over one hour
[2] = tested on: brain microvessel endothelial cells (BMEC); experiment: prostaglandin E2 release from BMEC monolayers exposed to bacterial lipopolysaccharide; format: cell-based
Description: In an exemplary study primary cultured brain microvessel endothelial cells (BMEC) were used as an in vitro cell culture model to examine inflammation. These cells have been used previously to examine the effects of the inflammatory mediators such as tumor necrosis factor (TNF), and bacterial lipopolysaccharide (LPS). See Mark, K. S. and Miller, D. W. increased Permeability of Prim my Cultured Brain Microvessel Endothelial Cell Monolayers Following Tumor Necrosis Factor-Alpha Exposure. Life Sci. 64: 1941-1953, 1999, which is herein incorporated by reference in its entirety. See also Mark, K. S., Trickier, W. J., and Miller, D. W. Role of Cyclooxygenase-2 and Prostaglandins in the TNF-a Induced Changes in Brain Microvessel Endothelial Cell Permeability. J. Pharmacol. Exp. Ther. 297: I 051-1058, 200 I, which is herein incorporated by reference in its entirety. See also McGuire, T. R., Hoie, E., Trickier, […]., and Miller, D. W. Release of Prostaglandin E-2 in Bovine Brain Endothelial Cells After Exposure to Three Unique Forms of the Antifuingal Drug Amphotericin: Role of COX-2 in Amphotericin-Induced Fever. Life Sci. (accepted for publication), which is herein incorporated by reference in its entirety. These studies indicate that following exposure to either tumor necrosis factor (TNF) or bacterial lipopolysaccharide (LPS), there is an increased expression of cyclooxygenase 2 (COX 2). […] Treatment with bacterial lipopolysaccharide (LPS) alone caused significant increases in prostaglandin E2 (PGE2) release from the cells over the 12 hour exposure period (approximately 1a-fold increase over control).

cyclooxygenase 1 = cyclooxygenase 1 (Homo sapiens, UniProt P23219); experiment: direct inhibition of cyclooxygenase 1; conditions: at concentrations used in the current study
Chain of cyclooxygenase 1 (P23219 24-599, species assumed): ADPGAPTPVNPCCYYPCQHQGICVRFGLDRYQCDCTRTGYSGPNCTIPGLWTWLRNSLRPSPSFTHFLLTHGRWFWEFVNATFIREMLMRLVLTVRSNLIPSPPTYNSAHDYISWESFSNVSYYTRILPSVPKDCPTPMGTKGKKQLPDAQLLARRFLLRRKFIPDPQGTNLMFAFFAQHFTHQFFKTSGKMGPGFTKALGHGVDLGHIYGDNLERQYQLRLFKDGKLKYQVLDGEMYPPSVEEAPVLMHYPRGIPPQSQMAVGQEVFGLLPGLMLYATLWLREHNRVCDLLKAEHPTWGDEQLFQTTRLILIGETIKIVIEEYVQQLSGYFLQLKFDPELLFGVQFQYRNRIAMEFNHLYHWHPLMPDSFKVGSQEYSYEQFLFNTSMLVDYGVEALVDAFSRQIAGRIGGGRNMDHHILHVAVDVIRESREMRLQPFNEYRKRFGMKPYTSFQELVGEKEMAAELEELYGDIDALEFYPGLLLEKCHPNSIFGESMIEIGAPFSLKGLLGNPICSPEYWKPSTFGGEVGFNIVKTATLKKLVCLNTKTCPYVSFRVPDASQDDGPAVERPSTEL

cyclooxygenase 2 = biological target: T1, cyclooxygenase 2 (Homo sapiens, UniProt P35354); experiment: direct inhibition of cyclooxygenase 2; conditions: at concentrations used in the current study
T1 sequence (P35354 18-604): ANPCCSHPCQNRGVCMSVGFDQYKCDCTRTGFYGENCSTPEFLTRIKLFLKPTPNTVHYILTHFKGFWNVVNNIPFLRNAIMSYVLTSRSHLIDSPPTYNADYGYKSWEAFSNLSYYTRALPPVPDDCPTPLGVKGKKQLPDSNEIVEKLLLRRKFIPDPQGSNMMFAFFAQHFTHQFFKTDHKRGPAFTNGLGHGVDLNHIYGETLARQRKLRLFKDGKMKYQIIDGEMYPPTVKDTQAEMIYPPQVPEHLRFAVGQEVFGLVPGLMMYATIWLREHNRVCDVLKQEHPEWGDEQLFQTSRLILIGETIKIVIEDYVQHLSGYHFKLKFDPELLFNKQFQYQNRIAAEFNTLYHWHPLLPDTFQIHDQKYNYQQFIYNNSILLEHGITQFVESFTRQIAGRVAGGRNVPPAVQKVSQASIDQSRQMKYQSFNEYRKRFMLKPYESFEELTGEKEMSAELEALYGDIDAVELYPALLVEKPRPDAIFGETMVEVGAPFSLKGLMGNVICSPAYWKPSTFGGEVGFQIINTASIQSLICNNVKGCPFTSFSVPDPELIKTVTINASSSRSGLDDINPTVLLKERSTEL

C2Cl2 Muscle Cells [3] = experiment: lactic acid levels in and release from C2Cl2 muscle cells under normal and hypoxic conditions; format: cell-based, mouse; conditions: 100 uM, six hour period
Description: (§1) Over this time period it was observed that here is a significant, approximately two-fold, increase in the “loading” of CEE in the muscle cells versus CM loading. FIGS. 13 through 15 exemplify the effects of this increased loading of CEE in the C2Cl2 cells under normal and hypoxic conditions. FIGS. 13 through 15 illustrate the results of studies of lactic acid levels in and lactic acid release from C2Cl2 muscle cells. […] The results were gathered over a six hour period of time.

C2Cl2 Muscle Cells [4] = experiment: accumulation (loading) of creatine in C2Cl2 muscle cells; format: cell-based, mouse; conditions: 3.2 mg/ml, up to 1 hour at 37 C
Description: as §1

MDCK monolayers [5] = conditions: dog, 1 h
[6] = of the administered dose; cited from earlier work
[7] = tested on: inflammatory responses produced by carrageenan, 5-hydroxytryptamine, nystatin and formaldehyde; conditions: oral; cited from earlier work
[8] = gastric pH range of 1-2; cited from earlier work

Compound: CN(CC(=O)O)C(=N)N [creatine monohydrate]
- flux across MDCK monolayer (MDCK monolayers [1]): approximately 10%
- magnitude of PGE2 response compared with indomethacin (10 μM) ([2]; 1000 μM): similar
- concentration giving maximal reduction in PGE2 release ([2]; LPS 20 ng/ml, 12 hour exposure): at least 1000 μM
- lowest concentration with reduction in PGE2 release ([2]; LPS 20 ng/ml, 12 hour exposure): 100 µM
- direct inhibition of cyclooxygenase 1 (cyclooxygenase 1; monohydrate): have not presently revealed an inhibition
- direct inhibition of cyclooxygenase 2 (cyclooxygenase 2; monohydrate): have not presently revealed an inhibition

Compound: CCOC(=O)CN(C)C(=N)N [creatine ethyl ester]
- cellular lactic acid levels (C2Cl2 Muscle Cells [3]): marked reduction
- lactic acid release (C2Cl2 Muscle Cells [3]): marked reduction
- increase in loading in muscle cells versus CM loading (C2Cl2 Muscle Cells [4]): approximately two-fold
- flux across MDCK monolayer (MDCK monolayers [5]): approximately 20%
- magnitude of PGE2 response compared with indomethacin (10 μM) ([2]; 100 μM): similar
- direct inhibition of cyclooxygenase 1 (cyclooxygenase 1): have not presently revealed an inhibition
- direct inhibition of cyclooxygenase 2 (cyclooxygenase 2): have not presently revealed an inhibition

Compound: CN(CC(=O)O)C(=N)N [creatine]
- total estimated oral absorption [6]: ≤ 14%
- Partition (partition coefficient): 0.015 +/− 0.007
- direct inhibition of cyclooxygenase 1 (cyclooxygenase 1): does not inhibit
- direct inhibition of cyclooxygenase 2 (cyclooxygenase 2): does not inhibit
- suppression of experimentally induced inflammatory responses [7]: orally effective
- creatinine/creatine ratio [8]: greater than or equal to 30

Compound: CCOC(=O)CN(C)C(=N)N.Cl [creatine ethyl ester hydrochloride, Creatine Ethyl Ester Hydrochloride]
- concentration giving maximal reduction in PGE2 release ([2]; LPS 20 ng/ml, 12 hour exposure): 100 µM
- lowest concentration with reduction in PGE2 release ([2]; LPS 20 ng/ml, 12 hour exposure): 10 µM
- effect on prostaglandin E2 (PGE2) release following LPS exposure ([2]; LPS 20 ng/ml, 12 hour exposure, co-administration): significantly reduced
